One test has as its target T1, rat PAC1 receptor (Rattus norvegicus, UniProt P32215).
T1 construct: SHSY-5Y (human neuroblastoma cell line) and RG-2 (rat glioma cell line) cells endogenously express human and rat PAC1 receptors, respectively; endogenous in cells; host or cells: RG-2 rat glioma cells
T1 sequence (P32215 20-523): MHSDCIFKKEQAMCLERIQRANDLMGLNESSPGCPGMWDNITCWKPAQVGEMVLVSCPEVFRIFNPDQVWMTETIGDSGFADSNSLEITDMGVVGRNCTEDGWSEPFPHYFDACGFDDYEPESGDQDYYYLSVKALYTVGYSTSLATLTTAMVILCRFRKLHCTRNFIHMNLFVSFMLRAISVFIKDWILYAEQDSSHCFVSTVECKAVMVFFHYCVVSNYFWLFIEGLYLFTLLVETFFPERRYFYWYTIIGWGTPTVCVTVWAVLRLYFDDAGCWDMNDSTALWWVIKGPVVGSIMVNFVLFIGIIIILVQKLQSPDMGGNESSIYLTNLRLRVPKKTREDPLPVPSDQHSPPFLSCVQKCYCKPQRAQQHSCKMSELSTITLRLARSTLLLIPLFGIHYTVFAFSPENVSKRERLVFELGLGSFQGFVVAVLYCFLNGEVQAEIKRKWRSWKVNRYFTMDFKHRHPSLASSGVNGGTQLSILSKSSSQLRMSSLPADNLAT
The test can be described thus: LANCE Ultra cAMP accumulation antagonist assay in RG-2 cells.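 Also: RG-2 rat glioma cells endogenously expressing PAC1, test peptide preincubated 30 min, then PAC1 agonist added at its EC80 for 15 min, cAMP accumulation read by LANCE Ultra.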 Format: cell-based. On the technique in general: Time-resolved FRET reads energy transfer from a long-lived donor to a nearby acceptor.

In another test the target is T2, human PAC1 receptor (Homo sapiens, UniProt P41586).
T2 construct: SHSY-5Y (human neuroblastoma cell line) and RG-2 (rat glioma cell line) cells endogenously express human and rat PAC1 receptors, respectively; endogenous in cells; host or cells: SHSY-5Y human neuroblastoma cells
T2 sequence (P41586 21-468): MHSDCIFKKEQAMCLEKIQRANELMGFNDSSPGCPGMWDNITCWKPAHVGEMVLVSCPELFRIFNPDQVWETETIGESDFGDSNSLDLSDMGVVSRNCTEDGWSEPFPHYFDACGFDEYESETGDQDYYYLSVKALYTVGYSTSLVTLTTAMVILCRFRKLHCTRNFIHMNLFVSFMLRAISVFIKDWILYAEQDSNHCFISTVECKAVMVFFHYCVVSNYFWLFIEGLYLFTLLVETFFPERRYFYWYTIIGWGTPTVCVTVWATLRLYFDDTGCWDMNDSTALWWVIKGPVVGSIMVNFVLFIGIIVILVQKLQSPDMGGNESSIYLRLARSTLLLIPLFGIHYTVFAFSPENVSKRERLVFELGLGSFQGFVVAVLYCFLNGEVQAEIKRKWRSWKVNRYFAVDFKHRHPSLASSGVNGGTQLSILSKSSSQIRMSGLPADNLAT
The test is described as follows: LANCE Ultra cAMP accumulation antagonist assay in SHSY-5Y cells.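 Also: inhibition of cAMP accumulation evoked by PAC1 agonist at its EC80 in SHSY-5Y cells endogenously expressing receptor, 30 min preincubation then 15 min agonist, TR-FRET readout.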 Format: cell-based.

Another test addresses T3, PAC1 (Rattus norvegicus, UniProt P32215).
T3 construct: Naive male Sprague Dawley® rats aged 8-12 weeks at the time of the study were purchased from Charles River Laboratories; tissue Charles River Laboratories; host or cells: live male Sprague Dawley rats; dermal blood flow on abdominal skin
T3 sequence (P32215 20-523): T1 sequence (P32215 20-523)
The test can be described thus: Rat maxadilan-induced increase in blood flow (MIIBF) PD model, laser Doppler imaging. To be noted: for inhibition of maxadilan-induced increase in DBF: single bolus s.c., lowest dose of 0.3 mg/kg, 15 min prior to maxadilan, 45 min post peptide treatment. The class given is in vivo. As to the method: PAC1 peptide antagonists were also evaluated in an in vivo pharmacodynamic model—a model of maxadilan-induced increase in blood flow.
Naive male Sprague Dawley® rats aged 8-12 weeks at the time of the study were purchased from Charles River Laboratories. Animals were group-housed in non-sterile, ventilated micro-isolator housing in Amgen Assessment and Accreditation of Laboratory Animal Committee (AAALAC)-accredited facility. Animals had ad libitum access to pelleted feed (Harlan Teklad 2020X, Indianapolis, IN) and water (on-site generated reverse osmosis) via automatic watering system.
All PAC1 peptides were tested in a rat maxadilan-induced increase in blood flow (MIIBF) pharmacodynamic (PD) model with a laser Doppler imaging. A dosing solution of maxadilan (Bachem, H6734.0500) was prepared fresh daily by diluted maxadilan stock solution (0.5 mg/mL) in 1× PBS to the final concentration of 0.5 μg/mL. All tested peptides were prepared in 1× PBS at different concentrations depend on the dose required for the experiment and given in a single bolus i.v. or s.c. injection. A laser Doppler imager (LDI-2, Moor Instruments, Ltd, Wilmington, Del.) was used to measure dermal blood flow (DBF) on the shaved skin of the rat abdomen with a low-power laser beam generated by a 633 nm helium-neon bulb. The measurement resolution was 0.2 to 2 mm, with scanning distances between the instrument aperture and the tissue surface of 30 cm. In this report, DBF was measured and expressed as % change from baseline [100×(individual post-CAP flux-individual baseline flux)/individual baseline flux] and further calculated to % Inhibition to quantify the magnitude of drug effect [Mean of vehicle % change from BL−individual drug treated rat % change from BL)/Mean of vehicle % change from BL].
On the test day, following anesthetization with propofol, the rat's abdominal area was shaved and each animal was placed in a supine position on a temperature-controlled circulating warm-water pad to maintain a stable body temperature during the study. After a 10 to 15 minute stabilization period, a rubber O-ring (0.925 cm inner diameter, O-Rings West, Seattle, Wash.) was placed on the rat abdomen without directly positioning it over a visible blood vessel while the rat placed in a supine position on a temperature-controlled circulating warm-water pad to maintain a stable body temperature during the study. After placement of an O-ring on the selected area, a baseline (BL) DBF measurement was taken. After the BL scan, PAC1 peptides were administrated either 5 min for i.v., or 15 min for s.c. then followed by 20 μL (in 0.5 μg/mL) intradermal injection of maxadilan at the center of the O-ring. The post-maxadilan DBF was measured at 30 min and the post peptides time was 35 min for i.v. and 45 min for s.c. respectively. The O-ring serves as an area of interest in which the DBF will be analyzed within the O-ring.
All DBF results were expressed as the mean±SEM. A one-way ANOVA followed by Dunnett's Multiple Comparison Test (MCT) was used to assess the statistical significance of PAC1 peptides effects relative to the vehicle within the study. A p<0.05 was used to determine significance between any two groups.

The results in this text go back to patent US20210395313A1, “PEPTIDE PAC1 ANTAGONISTS” (AMGEN INC., priority 2017, published 2021).

Where a SMILES comes first, the peptide text is derived from it. Bridges are numbered along the chain shown (N, C = ends). Where no end group is shown, it is not given here.

The term IC50 denotes the point on the concentration scale where inhibition reaches its midpoint. Take “CDATCQFRKAIDDCLLRAWHSNVPGSVFKACMKQKKKEFKAG-NH2 (disulfide 1-5, 14-31) [SEQ ID NO 85]”: the IC50 against rat PAC1 receptor and at human PAC1 receptor was 0.01 to 1 nM throughout. For the same molecule, the “inhibition of maxadilan-induced increase in DBF” value at PAC1 is on record as “statistically significant inhibition”.
On to `CC[C@H](C)[C@H](NC(=O)[C@H](C)NC(=O)[C@H](CCCCN)NC(=O)[C@H](CCCNC(=N)N)NC(=O)[C@H](Cc1ccccc1)NC(=O)[C@H](CCC(N)=O)NC(=O)[C@@H]1CSSC[C@H](N)C(=O)N[C@@H](CC(=O)O)C(=O)N[C@@H](C)C(=O)N[C@@H]([C@@H](C)O)C(=O)N1)C(=O)N[C@@H](CC(=O)O)C(=O)N[C@@H](CC(=O)O)C(=O)N[C@H]1CSSC[C@@H](C(=O)N[C@@H](CCSC)C(=O)N[C@@H](CCCCN)C(=O)N[C@@H](CCC(N)=O)C(=O)N[C@@H](CCCCN)C(=O)N[C@@H](CCCCN)C(=O)N[C@@H](CCCCN)C(=O)N[C@@H](CCC(=O)O)C(=O)N[C@@H](Cc2ccccc2)C(=O)N[C@@H](CCCCN)C(=O)N[C@@H](C)C(=O)NCC(N)=O)NC(=O)[C@H](C)NC(=O)[C@H](CCCCN)NC(=O)[C@H](Cc2ccccc2)NC(=O)[C@H](C(C)C)NC(=O)[C@H](CO)NC(=O)CNC(=O)[C@@H]2CCCN2C(=O)[C@H](C(C)C)NC(=O)[C@H](CC(N)=O)NC(=O)[C@H](CO)NC(=O)[C@H](Cc2c[nH]cn2)NC(=O)[C@H](Cc2c[nH]cn2)NC(=O)[C@H](C)NC(=O)[C@H](CCC(N)=O)NC(=O)[C@H](CCCCN)NC(=O)[C@H](CCC(N)=O)NC1=O` [SEQ ID NO 233], for which the IC50 on rat PAC1 receptor was in the range of 0.01 to 1 nM; on human PAC1 receptor, 1 to 100 nM. Also, the “inhibition of MIIBF (dermal blood flow)” value at PAC1 (single bolus i.v., lowest dose of 0.1 mg/kg, 5 min prior to maxadilan, 35 min post peptide treatment) is “statistically significant inhibition”.
Regarding “CDATCQFRKAIDDCDRQAHHSNVPGSVFKACMKQKKKEWKAG-NH2 (disulfide 1-5, 14-31) [SEQ ID NO 163]”, the IC50 against rat PAC1 receptor and on human PAC1 receptor was 0.01 to 1 nM each time. The “inhibition of maxadilan-induced increase in DBF” value at PAC1 is “statistically significant inhibition”.
For `CC[C@H](C)[C@H](NC(=O)[C@H](C)NC(=O)[C@H](CCCCN)NC(=O)[C@H](CCCNC(=N)N)NC(=O)[C@H](Cc1ccccc1)NC(=O)[C@H](CCC(N)=O)NC(=O)[C@@H]1CSSC[C@H](N)C(=O)N[C@@H](CC(=O)O)C(=O)N[C@@H](C)C(=O)N[C@@H]([C@@H](C)O)C(=O)N1)C(=O)N[C@@H](CC(=O)O)C(=O)N[C@@H](CC(=O)O)C(=O)N[C@H]1CSSC[C@@H](C(=O)N[C@@H](CCSC)C(=O)N[C@@H](CCCCN)C(=O)N[C@@H](CCC(N)=O)C(=O)N[C@@H](CCCCN)C(=O)N[C@@H](CCCCN)C(=O)N[C@@H](CCCCN)C(=O)N[C@@H](CCC(=O)O)C(=O)N[C@@H](Cc2ccccc2)C(=O)N[C@@H](CCCCN)C(N)=O)NC(=O)[C@H](CCC(=O)O)NC(=O)[C@H](CCCCN)NC(=O)[C@H](Cc2ccccc2)NC(=O)[C@H](C(C)C)NC(=O)[C@H](CO)NC(=O)[C@H](CC(N)=O)NC(=O)CNC(=O)[C@H](C(C)C)NC(=O)[C@H](CC(N)=O)NC(=O)[C@H](CO)NC(=O)[C@H](Cc2c[nH]cn2)NC(=O)[C@H](Cc2c[nH]cn2)NC(=O)[C@H](C)NC(=O)[C@H](CCC(N)=O)NC(=O)[C@H](CCCCN)NC(=O)[C@H](CCC(N)=O)NC1=O` [compound 275] (H-CDATCQFRKAIDDCQKQAHHSNVGNSVFKECMKQKKKEFK-NH2; disulfide 1-5, 14-31), the IC50 against rat PAC1 receptor and on human PAC1 receptor was 1 to 100 nM in each case.
“CDATCQFRKAIDDCQKQAHHSNVPGSVFKACMKQKKKEFKAR (disulfide 1-5, 14-31) [compound 68]”: the IC50 against rat PAC1 receptor and against human PAC1 receptor was 0.01 to 1 nM in each case.
Consider “CDATCQFRKAIDDCQKQAHHSNVPGSVFKACLKQKKKEFKAG-NH2 (disulfide 1-5, 14-31) [compound 143]”, for which the half-maximal inhibitory concentration (IC50) against rat PAC1 receptor and on human PAC1 receptor was 0.01 to 1 nM in each case.
In the case of `CC[C@H](C)[C@H](NC(=O)[C@H](C)NC(=O)[C@H](CCCCN)NC(=O)[C@H](CCCNC(=N)N)NC(=O)[C@H](Cc1ccccc1)NC(=O)[C@H](CCC(N)=O)NC(=O)[C@@H]1CSSC[C@H](N)C(=O)N[C@@H](CC(=O)O)C(=O)N[C@@H](C)C(=O)N[C@@H]([C@@H](C)O)C(=O)N1)C(=O)N[C@@H](CC(=O)O)C(=O)N[C@@H](CC(=O)O)C(=O)N[C@H]1CSSC[C@@H](C(=O)N[C@@H](CCSC)C(=O)N[C@@H](CCCCN)C(=O)N[C@@H](CCC(N)=O)C(=O)N[C@@H](CCCCN)C(=O)N[C@@H](CCCCN)C(=O)N[C@@H](CCCCN)C(=O)N[C@@H](CCC(=O)O)C(=O)N[C@@H](Cc2ccccc2)C(=O)N[C@@H](CCCCN)C(=O)N[C@@H](C)C(=O)NCC(=O)N[C@@H](Cc2c[nH]cn2)C(=O)O)NC(=O)[C@H](C)NC(=O)[C@H](CCCCN)NC(=O)[C@H](Cc2ccccc2)NC(=O)[C@H](C(C)C)NC(=O)[C@H](CO)NC(=O)[C@H](CO)NC(=O)[C@H](Cc2c[nH]cn2)NC(=O)[C@H](Cc2c[nH]cn2)NC(=O)[C@H](C)NC(=O)[C@H](CCC(N)=O)NC(=O)[C@H](CCCCN)NC(=O)[C@H](C(C)C)NC1=O` [compound 19] (H-CDATCQFRKAIDDCVKQAHHSSVFKACMKQKKKEFKAGH-OH; disulfide 1-5, 14-27), the IC50 against rat PAC1 receptor was in the range of 0.01 to 1 nM; against human PAC1 receptor, 1 to 100 nM.
As to “CDATCQFRKAIDDCYYRSKHSNVPGSVFKACMKQKKKEFKAG-NH2 (disulfide 1-5, 14-31) [compound 43]”, the results for the IC50 against rat PAC1 receptor and on human PAC1 receptor were less than 0.01 nM and 0.01 to 1 nM, respectively.
Consider “CDATCQFRKAIDDCQKQAHHSNVPGSVFKACVLQKKKEFKAG-NH2 (disulfide 1-5, 14-31) [compound 93]”, for which the IC50 at rat PAC1 receptor and against human PAC1 receptor was 1 to 100 nM each time.
As to “CDATCQFRKAIDDCVRQAHHSNVPGSVWKACMKQKKKEWKAGH (disulfide 1-5, 14-31) [compound 106]”, the IC50 at rat PAC1 receptor and on human PAC1 receptor was 0.01 to 1 nM throughout.
Take “CDATCQFRKAIDDCQKQAHHSNVPGSVFKACMKQKKKEFKAW (disulfide 1-5, 14-31) [compound 95]”: the half-maximal inhibitory concentration (IC50) at rat PAC1 receptor and on human PAC1 receptor was 1 to 100 nM throughout.
Take “CDATCQFRKAIDECARQAHHSNVPGSVFKACMKQKKKEWKAGH (disulfide 1-5, 14-31) [compound 25]”: the IC50 on rat PAC1 receptor is less than 0.01 nM; against human PAC1 receptor, 0.01 to 1 nM.
